Measurements from PubChem BioAssay AID1845215 (Molecular Pharmacology Branch, DTP, NCI, 2023).

Tested on: SW 1271 complex tumor spheroid viability
Assay: Anticancer human tumor SW 1271 cell line growth inhibition;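 further: spheroids exposed to agents for seven days before readout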;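 on viability, T/C: percent of DMSO vehicle control luminescence so 100% = vehicle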
Settings: for viability, T/C: stronger effect = lower value
In short: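 Single agents and combinations were tested on spheroids built from tumor cells plus HUVEC and hMSC, at half-log dilutions starting at or near clinical Cmax, else 10 microM; final DMSO 0.25% (v/v).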

For `COc1cc2c(cc1O)CCNC21CSC2c3c(OC(C)=O)c(C)c4c(c3C(COC1=O)N1C(O)C3Cc5cc(C)c(OC)c(O)c5C(C21)N3C)OCO4` (stereo unspecified), the viability, T/C (compound 30 pM) was 89.8% [middle of 10 runs], the viability, T/C (compound 94.9 pM) was 64.2% [middle of 10 runs] and the viability, T/C (compound 0.0003 µM) was 34.4% [middle of 10 runs]. For the same compound, the viability, T/C (compound 0.000949 µM) was 3.63% [middle of 10 runs], the viability, T/C (compound 0.003 µM) was 0.11% [middle of 6 runs] and the IC50 (compound alone, run of 12/16/2019) was 0.156 nM [middle of 10 runs].
`Cc1sc2c(c1C)C(c1ccc(Cl)cc1)=NC(CC(=O)Nc1ccc(O)cc1)c1nnc(C)n1-2` (stereo unspecified) + COc1cc2c(cc1O)CCNC21CSC2c3c(OC(C)=O)c(C)c4c(c3C(COC1=O)N1C(O)C3Cc5cc(C)c(OC)c(O)c5C(C21)N3C)OCO4 was tested, and the IC50 (curve of first compound, second compound 30 pM) was 145 nM, the IC50 (curve of first compound, second compound 94.9 pM) was 41.6 nM and the IC50 (curve of first compound, second compound 0.0003 µM) was < 9.49 nM. The IC50 (curve of first compound, second compound 0.000949 µM) was < 9.49 nM, the IC50 (curve of first compound, second compound 0.003 µM) was < 9.49 nM and the viability, T/C (second compound 30 pM, first compound 0.00949 µM) was 101%. For the same compound, the viability, T/C (second compound 30 pM, first compound 0.03 µM) was 108%, the viability, T/C (second compound 30 pM, first compound 0.0949 µM) was 74.3% and the viability, T/C (second compound 30 pM, first compound 0.3 µM) was 8.06%. The viability, T/C (second compound 30 pM, first compound 0.949 µM) was 1.02%, the viability, T/C (second compound 30 pM, first compound 3 µM) was 0.91% and the viability, T/C (second compound 94.9 pM, first compound 0.00949 µM) was 76.2%. For the same compound, the viability, T/C (second compound 94.9 pM, first compound 0.03 µM) was 57.9%, the viability, T/C (second compound 94.9 pM, first compound 0.0949 µM) was 28.9% and the viability, T/C (second compound 94.9 pM, first compound 0.3 µM) was 5.41%. It also gave a viability, T/C (second compound 94.9 pM, first compound 0.949 µM) of 1.12%, a viability, T/C (second compound 94.9 pM, first compound 3 µM) of 0.93% and a viability, T/C (second compound 0.0003 µM, first compound 0.00949 µM) of 30.6%. For the same compound, the viability, T/C (second compound 0.0003 µM, first compound 0.03 µM) was 23.9%, the viability, T/C (second compound 0.0003 µM, first compound 0.0949 µM) was 13.5% and the viability, T/C (second compound 0.0003 µM, first compound 0.3 µM) was 2.97%. For the same compound, the viability, T/C (second compound 0.0003 µM, first compound 0.949 µM) was 1.45%, the viability, T/C (second compound 0.0003 µM, first compound 3 µM) was 0.77% and the viability, T/C (second compound 0.000949 µM, first compound 0.00949 µM) was 6.61%. For the same compound, the viability, T/C (second compound 0.000949 µM, first compound 0.03 µM) was 6.28%, the viability, T/C (second compound 0.000949 µM, first compound 0.0949 µM) was 2.99% and the viability, T/C (second compound 0.000949 µM, first compound 0.3 µM) was 1.78%. It also gave a viability, T/C (second compound 0.000949 µM, first compound 0.949 µM) of 0.1%, a viability, T/C (second compound 0.000949 µM, first compound 3 µM) of 0.09% and a viability, T/C (second compound 0.003 µM, first compound 0.00949 µM) of 0.11%. The viability, T/C (second compound 0.003 µM, first compound 0.03 µM) was 0.11%, the viability, T/C (second compound 0.003 µM, first compound 0.0949 µM) was 0.11% and the viability, T/C (second compound 0.003 µM, first compound 0.3 µM) was 0.11%. It also gave a viability, T/C (second compound 0.003 µM, first compound 0.949 µM) of 0.09% and a viability, T/C (second compound 0.003 µM, first compound 3 µM) of 0.17%.
